Reference: patent publication US20230310352A1, “NOVEL COMPOSITIONS AND METHODS FOR THE TREATMENT OF LUNG FIBROSIS” (LAURENT PHARMACEUTICALS INC., priority 2020, published 2023)
“Also recorded” adds a separate entry of the source.

Key:
[1] = tested on: bleomycin-induced lung fibrosis; assay: Intratracheal bleomycin mouse model of pulmonary fibrosis (28-day model); format: in vivo, C57BL/6N mice; conditions: Day 28; oral once daily Day 7 to Day 28; fenretinide 10 mg/kg (as LAU-7b SDI), pirfenidone 100 mg/kg
Source text: Oral administration of a solid, amorphous dispersion formulation of fenretinide (LAU-7b SDI) was provided as a treatment for reduction of pulmonary fibrosis, in a mouse model of lung fibrosis induced via a single intratracheal administration of bleomycin, for 21 days. The LAU-7b SDI formulation was obtained by spray drying and contains fenretinide in amorphous form in a solid dispersion comprising a matrix polymer, based on the following formula: 40% fenretinide, 59.6% povidone (KOLLIDON® 30), 0.24% butylated hydroxyanisole (BHA) and 0.16% butylated hydroxytoluene (BHT).
Male C57BL/6N mice from Charles River Laboratories, 10-12 weeks of age, weighing around 20-25 g, at the time of their enrolment, received 50 μL of bleomycin sulfate (2.0 mg/kg) by a single intratracheal instillation on Day 1 of the study to induce lung fibrosis. The sham group received an equivalent volume of 0.9% saline. On Day 7 postbleomycin instillation, the animals were randomized in groups of animals based on their body weight loss and enhanced pause airway resistance estimate (PenH value), while the sham group had 6 mice. Oral dosing by gavage (10 mL/kg) with the vehicle (sham and BLM control groups), the test articles (fenretinide 10 mg/kg), and the reference compound (pirfenidone 100 mg/kg) were administered once daily starting from Day 7 to Day 28. Two hours following the last dose on Day 28, all mice were sacrificed, the lungs of each mouse harvested, flushed with 0.9% NaCl and inflated with 10% neutral buffered formalin solution. After embedding and mounting of the lung tissue (transversal slices of 5 μm thickness), the histology slides were stained with hematoxylin/eosin for the Ashcroft score evaluation by a treatment-blinded pathologist and with Sirius red staining for automated fibrosis quantification (Biocelvia, France).
The key endpoints evaluated in this study were Ashcroft score, pulmonary foci and collagen content obtained by histological assessment of the lung tissue at the end of the study. Statistical analysis was made on normally distributed data by one-way ANOVA followed by multiple comparisons (Fisher's LSD post hoc test) to assess the difference between the groups, using Graph Pad Prism Software version 8.0 (San Diego, CA, USA). Differences were considered statistically significant when P values were p<0.05 (*), or p<0.01 (**) or p<0.001 (***).
Ashcroft scale for the evaluation of bleomycin-induced lung fibrosis is the analysis of stained histological samples by visual assessment. The Ashcroft score was assessed in lung tissue collected on Day 28 by treatment-blinded pathologist on H&E stained lung tissue histology slides (3 cross sections/animal) and using the modified Ashcroft scale. Briefly, each lung section was scanned at a magnification of x100 (H&E staining), read by a blinded examiner, and graded from 0 (normal lung) to 8 (total fibrotic obliteration of the field). Criteria for grading lung fibrosis in Ashcroft scale are as follows: Grade 0=normal lung; Grade 1=minimal fibrous thickening of alveolar or bronchiolar walls; Grade 3=moderate thickening of walls without obvious damage to lung architecture; Grade 5=increased fibrosis with definitive damage to lung structure and formation of fibrous bands or small fibrous masses; Grade 7=severe distortion of structure and large fibrous area; Grade 8=total fibrous obliteration of lung fields. The mean value of the grades obtained for each of the three sections was used as the Ashcroft score. Ashcroft score, using the modified scale, is a reliable and reproducible method of visual quantification of bleomycin induced lung fibrosis in H&E stained histological lung sections based on description of the general morphology of alveolar septa and lung structure. […]

[2] = tested on: lung fibroblast-populated long microtissue; assay: Lung fibroblast-populated long microtissue, model of traction bronchiectasis; format: cell-based, human
Source text: In a fibrotic lung, traction bronchiectasis occurs when small bronchial openings dilate due to traction force exerted by the surrounding fibrotic tissue. To model this unique fibrosis feature of the lung, stress concentrations were patterned to induce the dilation of tissue openings in the engineered microtissues described in Example 2. In order to further increase local stress levels, rigid micropillars were designed to support the long microtissue. In order to experimentally model the mechanical process of traction bronchiectasis, lung fibroblast-populated long microtissue was induced to fibrosis using TGF-β1 treatment (5 ng/ml). Continuous TGF-β1 treatment for 6 days induced increased expression of α-SMA and pro-collagen type 1 across the entire microtissue, in addition to dilated tissue openings around the micropillars. These effects were absent in untreated conditions. To examine the effects of fenretinide (2 μM and 4 μM doses) in inhibiting traction bronchiectasis, fenretinide was co-administered with TGF-β1 at the beginning of long microtissue culture and remained for 6 days. The unique geometry of the long microtissue allows tissue opening (hole) formation around micropillars under elevated contractile force generated by the differentiated myofibroblasts, mimicking the traction bronchiectasis. […] FIG. 9 presents the quantified opening area/total tissue area ratio.

[3] = tested on: Normal human lung fibroblast cells (NHLF cells, ATCC CRL-7000); assay: Pro-collagen 1A1 protein by ELISA after TGF-β1 exposure in NHLF; format: cell-based; conditions: TGF-β1 2 ng/mL + fenretinide 1, 2, 3, 4 μM, 3 days
Method: NHLF cells were incubated for 3 days at 37° C. and treated with TGF-β1 (2 ng/mL) or TGF-β1 (2 ng/mL)+Fenretinide (1, 2, 3, 4 μM). At the end of the 3 day-treatment period, media was collected in identified tubes, centrifuged at 2,000 g for 20 minutes and stored at −80° C. Cells were collected using trypsin, transferred in identified tubes and centrifuged at 1,000 g for 5 minutes. Cells were then washed twice in PBS 1X prior to be resuspended in ELISA lysis buffer. Pro-collagen 1A1 protein contents were determined using Abcam ELISA detection kit (Ab210966). Experiment performed in quadruplicate.

Cftr.KO mice = conditions: cited from earlier work

## CC1=C(/C=C/C(C)=C/C=C/C(C)=C/C(=O)Nc2ccc(O)cc2)C(C)(C)CCC1 [fenretinide, 4-hydroxyphenyl retinamide]
[1]
  Ashcroft score vs BLM control: reduced significantly (p<0.05)
  percentage of collagen content in lung tissue, automated Sirius red analysis, vs BLM control: significantly reduced
  percentage of pulmonary foci (fibrotic tissue), automated Sirius red analysis, vs BLM control: significant reduction
[2]; TGF-β1 5 ng/ml, 6 days, 4 μM
  expression level of α-SMA in the long microtissue: strongly inhibited
  pro-collagen expression in the long microtissue: a similar trend
[2]; co-administered with TGF-β1 5 ng/ml for 6 days, 2 μM and 4 μM
  tissue openings around micropillars (traction bronchiectasis): tissue openings remained small
[3]
  induction of Pro-collagen 1A1 protein levels (ELISA): attenuate and, at certain doses, completely abolish; also recorded: dose-dependent attenuation
[3]; listed as Fenretinide
  induction of Pro-collagen 1A1 protein levels (ELISA): dose-dependent attenuation
Cftr.KO mice
  levels of DHA and AA and sphingolipids imbalance in the lungs and plasma: correct the levels
  lung inflammation: reduction
  pulmonary load of Pseudomonas aeruginosa: significant decrease
